Molecules are shown by their SMILES.

The target in data set [1] is T1, mTOR (Homo sapiens, UniProt P42345).
T1 construct: Dilute TOR fraction 1:14 in “Simple TOR Buffer”
Description: mTOR HTR-FRET Assay. It is filed as biochemical. The note with it: HTR-FRET screening assay, GST-p70S6 kinase fragment substrate. On the procedure: The following is an example of an assay that can be used to determine the mTOR inhibitory activity of a test compound. Reagents are prepared as follows:
“Simple TOR buffer” (used to dilute high glycerol TOR fraction): 10 mM Tris pH 7.4, 100 mM NaCl, 0.1% Tween-20, 1 mM DTT (from 1M stock frozen at −20° C. just prior to use). For convenience a large quantity of “Simple TOR buffer” w/o DTT can be stored at 4° C. It can be brought to room temperature and DTT added just prior to dilution of TOR fraction.
5×KB/5×Mn/5×ATP solution (used to dilute substrate GST-p70S6kin 81 a.a. just prior to use) (40 ml screen quantity shown):
Enzyme solution: Dilute TOR fraction 1:14 in “Simple TOR Buffer”. For current lot that is 640 μg/ml TOR fraction diluted 14× to yield 45.7 μg/ml TOR in buffer (i.e. 7.85 ml TOR pooled fraction+102.1 ml Simple TOR buffer=110 ml 14× diluted TOR fraction). Each Enzyme Lot must be QC'd prior to assay.
Substrate solution: This may be prepared just prior to assay if preferred. Dilute 5.3 mg/ml GST-p70S6kinase fragment stock to 3.5 μg/ml (97 nM) working stock in 5×KB/5×Mn/5×ATP solution (i.e. 26.41 μL (5.3 mg/ml) GST-p70S6+40 ml 5×KB/5×Mn/5×ATP=40 ml 3.5 μg/ml (97 nM)).
Assay Buffer (for dilution of Antibodies used in Antibody Detection Reagent):
Antibody Detection Reagent (this reagent should be made just prior to addition to Assay Plates):
Using PlateTrak program (Screen) or Matrix Pipettor (SAR), 19.5 μL of diluted TOR fraction is added to assay plate in all test, reference or positive control wells. 19.5 μL of “Simple TOR buffer” is added to all negative control wells. If treating multiple plates with the same compounds, can increase volume of enzyme to multiples of 19.5 μL in a tall 384 well polypropylene plate.
Using EP3, 0.5 μl of test, reference or control DMSO is added to each well with mixing. Plates are incubated for 30 minutes at room temperature.
Using PlateTrak program (Screen) or Matrix Pipettor (SAR) 5 μL of 5×KB/5×Mn/5×ATP/5× substrate solution is added to each well of the assay plate to start the reaction. The solutions are mixed well and incubated for 2 hours at room temperature.
Using PlateTrak program (Screen) or Matrix Pipettor (SAR) 5 μL of 60 mM EDTA is added to stop the reaction. The solutions are mixed well and allowed to sit for 15-20 minutes before the next step.
Using PlateTrak program (Screen) or Matrix Pipettor (SAR) 10 μl of Antibody Detection Reagent is added. The solutions are mixes well and incubated for 5 hours to O/N to allow antibodies to form complexes with phosphorylated substrate.
Plates are read on AnalystHT using protocol Multi-Method protocol.

The target in data set [2] is T2, PKCθ (Homo sapiens, UniProt Q04759).
T2 construct: purchased Invitrogen
Put plainly: PKCθ IMAP Assay. The note with it: IMAP fluorescence polarization screening assay, 35 μM ATP. In kind it is biochemical. On the procedure:
The following is an example of an assay that can be used to determine the PKCθ inhibitory activity of a test compound. Reagents are prepared as follows:
Assay Buffer: 50 mM HEPES (pH 7.6), 10 mM MgCl, 0.1 mM EDTA, 5 mM MBP, 0.01% Triton, 1 mM DTT, 0.05 mg/ml phosphatidyl serine, 0.05 mg/ml diacylglycerol.
The final concentration of PKCθ (Invitrogen) is 0.5 nM. The final concentration of substrate (FAM-AKRRRLSSLRA) (Molecular Devices) is 100 nM. The final concentration of ATP in the reaction is 35 μM. The final concentration of DMSO in the reaction is 2.5%.
Enzyme is kept in 5 μl aliquots and stored at −80° C. prior to use. Test compound is allowed to pre-incubate with enzyme for 45 minutes before the reactions is initiated.
The reaction mixture consists of: 5 μl of test compound in 10% DMSO, 5 μl of 400 nM substrate (FAM-AKRRRLSSLRA), 5 μl of […] PKCθ, and 5 μl of 140 μM ATP (ATP is added to the reaction mixture last to initiate the reaction) per well.
The reaction is allowed to proceed for 60 minutes and is terminated by adding 30 μl per well of 90% Progressive A buffer/10% Progressive B buffer and a 1:400 dilution of binding beeds (Molecular Devices).
The reaction is given a binding incubation time of at least 30 minutes prior to reading the fluorescence polarization signal on an Analyst reader (the following detector settings are used: fluorescein excitation-485 nm, fluorescein emission-530 nm, fluorescein dichroic-505 nm).
On the technique in general: In fluorescence polarisation assays a small probe gives low polarisation when free and higher when bound to something large.

T2 sequence (Q04759 whole entry): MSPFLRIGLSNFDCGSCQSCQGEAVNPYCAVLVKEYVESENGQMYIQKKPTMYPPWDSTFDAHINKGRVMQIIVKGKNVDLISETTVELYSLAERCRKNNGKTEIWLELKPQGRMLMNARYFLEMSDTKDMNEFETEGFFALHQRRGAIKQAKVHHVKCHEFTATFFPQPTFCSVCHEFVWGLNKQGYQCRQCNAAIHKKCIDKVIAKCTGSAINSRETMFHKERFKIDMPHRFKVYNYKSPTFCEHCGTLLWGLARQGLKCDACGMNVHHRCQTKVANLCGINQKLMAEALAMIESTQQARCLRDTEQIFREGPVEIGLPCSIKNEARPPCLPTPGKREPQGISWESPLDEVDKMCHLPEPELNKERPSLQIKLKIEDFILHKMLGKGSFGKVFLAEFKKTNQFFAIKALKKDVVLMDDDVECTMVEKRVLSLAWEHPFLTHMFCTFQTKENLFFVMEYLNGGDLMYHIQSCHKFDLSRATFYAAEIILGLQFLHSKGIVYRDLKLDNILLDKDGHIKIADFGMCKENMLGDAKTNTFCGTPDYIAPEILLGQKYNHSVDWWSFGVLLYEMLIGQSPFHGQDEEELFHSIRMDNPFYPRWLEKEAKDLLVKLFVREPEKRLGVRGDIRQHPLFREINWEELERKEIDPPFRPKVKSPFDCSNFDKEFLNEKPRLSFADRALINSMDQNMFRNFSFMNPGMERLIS

For the compound `COc1cc(-c2cnc3[nH]c(=O)n(CC4CCOCC4)c3n2)cc(OC)c1OC` [Compound 2, 1-((tetrahydro-2H-pyran-4-yl)methyl)-6-(3,4,5-trimethoxyphenyl)-1H-imidazo[4,5-b]pyrazin-2(3H)-one], the IC50 (in general, the point on the concentration scale where inhibition reaches its midpoint) is 0.1 to 5 µM in data set [1] and greater than 30 µM in data set [2].
With `COc1cccc(Cn2c(=O)[nH]c3ncc(-c4ccc(S(C)(=O)=O)cc4)nc32)c1` [Compound 4, 1-(3-methoxybenzyl)-6-(4-(methylsulfonyl)phenyl)-1H-imidazo[4,5-b]pyrazin-2(3H)-one], the concentration for half-maximal inhibition (IC50) in data set [1] is 0.1 to 5 µM; in data set [2], greater than 30 µM.
As for `C[C@@H](c1ccccc1)n1c(=O)[nH]c2ncc(-c3cccc4ncccc34)nc21` [Compound 5, (S)-1-(1-phenylethyl)-6-(quinolin-5-yl)-1H-imidazo[4,5-b]pyrazin-2(3H)-one], the IC50 in data set [1] was 5.1 to 10 µM; in data set [2], greater than 30 µM.
For the compound `O=c1[nH]c2ncc(-c3ccc(O)cc3)nc2n1CC1CCOCC1` [Compound 6, 6-(4-hydroxyphenyl)-1-((tetrahydro-2H-pyran-4-yl)methyl)-1H-imidazo[4,5-b]pyrazin-2(3H)-one], the IC50 in data set [1] fell in the range of 0.1 to 5 µM.
For `C[C@H](c1ccccc1)n1c(=O)[nH]c2ncc(-c3cccc4ncccc34)nc21` [Compound 10, (R)-1-(1-phenylethyl)-6-(quinolin-5-yl)-1H-imidazo[4,5-b]pyrazin-2(3H)-one], the IC50 in data set [1] fell in the range of 10.1 to 20 µM; in data set [2], 0.1 to 5 µM.
Turning to `O=c1[nH]c2ncc(-c3cccc4ncccc34)nc2n1Cc1ccccc1` [Compound 14, 1-benzyl-6-(quinolin-5-yl)-1H-imidazo[4,5-b]pyrazin-2(3H)-one], the half-maximal inhibitory concentration (IC50) in data set [1] was 0.1 to 5 µM; in data set [2], greater than 30 µM.
Taken in the same sequence, the figures for `COc1ccc(Cn2c(=O)[nH]c3ncc(-c4cccc5ncccc45)nc32)cc1` [Compound 15, 1-(4-methoxybenzyl)-6-(quinolin-5-yl)-1H-imidazo[4,5-b]pyrazin-2(3H)-one] were 0.1 to 5 µM and greater than 30 µM.
As to `C[C@H](c1ccccc1)n1c(=O)[nH]c2cnc(-c3cccc4ncccc34)cc21` [Compound 24, (R)-1-(1-phenylethyl)-6-(quinolin-5-yl)-1H-imidazo[4,5-c]pyridin-2(3H)-one], the IC50 in data set [1] and in data set [2] was greater than 30 µM throughout.
Take `C[C@@H](c1ccccc1)n1c(=O)[nH]c2cnc(-c3cccc4ncccc34)cc21` [Compound 25, (S)-1-(1-phenylethyl)-6-(quinolin-5-yl)-1H-imidazo[4,5-c]pyridin-2(3H)-one]: the 50% inhibitory concentration (IC50) in data set [1] and in data set [2] was greater than 30 µM in each case.
Take `CC(c1ccccc1)n1c(=O)[nH]c2ccc(-c3cccc4ncccc34)nc21` (stereo not drawn) [Compound 26, 3-(1-phenylethyl)-5-(quinolin-5-yl)-1H-imidazo[4,5-b]pyridin-2(3H)-one]: the half-maximal inhibitory concentration (IC50) in data set [1] was greater than 30 µM; in data set [2], 5.1 to 10 µM.
For the compound `C[C@H](c1ccccc1)n1c(=O)[nH]c2ccc(-c3cccc4ncccc34)nc21` [Compound 27, (R)-3-(1-phenylethyl)-5-(quinolin-5-yl)-1H-imidazo[4,5-b]pyridin-2(3H)-one], the IC50 is greater than 30 µM in data set [1] and 5.1 to 10 µM in data set [2].
As to `O=c1[nH]c2ncc(-c3cccc4ncccc34)nc2n1[C@@H](CO)c1ccccc1` [Compound 40, (R)-1-(2-hydroxy-1-phenylethyl)-6-(quinolin-5-yl)-1H-imidazo[4,5-b]pyrazin-2(3H)-one], the IC50 in data set [1] and in data set [2] was 10.1 to 20 µM throughout.
As for `O=c1[nH]c2ncc(-c3cccc4ncccc34)nc2n1[C@H](CO)c1ccccc1` [Compound 41, (S)-1-(2-hydroxy-1-phenylethyl)-6-(quinolin-5-yl)-1H-imidazo[4,5-b]pyrazin-2(3H)-one], the half-inhibitory concentration (IC50) in data set [1] was 5.1 to 10 µM; in data set [2], 0.1 to 5 µM.
With `CC[C@H](c1ccccc1)n1c(=O)[nH]c2ncc(-c3cccc4ncccc34)nc21` [Compound 45, (R)-1-(1-phenylpropyl)-6-(quinolin-5-yl)-1H-imidazo[4,5-b]pyrazin-2(3H)-one], the results for the half-inhibitory concentration (IC50) in data set [1] and in data set [2] were greater than 30 µM and 0.1 to 5 µM, respectively.
Compound `CC(c1ccccc1)n1c(=O)[nH]c2ncc(-c3ccc(NS(C)(=O)=O)cc3)nc21` (stereo not drawn) [Compound 78, N-(4-(2-oxo-3-(1-phenylethyl)-2,3-dihydro-1H-imidazo[4,5-b]pyrazin-5-yl)phenyl)methanesulfonamide] registered a concentration for half-maximal inhibition (IC50) in data set [2] greater than 30 µM.
For the compound `CC(c1ccccc1)n1c(=O)[nH]c2ncc(-c3cccc(N)c3)nc21` (stereo not drawn) [Compound 80, 6-(3-aminophenyl)-1-(1-phenylethyl)-1H-imidazo[4,5-b]pyrazin-2(3H)-one], in data set [1], the IC50 lay in the range of 5.1 to 10 µM.
`CC(c1ccccc1)n1c(=O)[nH]c2ncc(-c3cccc(N(C)C)c3)nc21` (stereo not drawn) [Compound 81, 6-(3-(dimethylamino)phenyl)-1-(1-phenylethyl)-1H-imidazo[4,5-b]pyrazin-2(3H)-one] showed an IC50 in data set [1] greater than 30 µM.
Compound `CC(c1ccccc1)n1c(=O)[nH]c2ncc(-c3ccc(C(F)(F)F)cc3)nc21` (stereo not drawn) [Compound 83, 1-(1-phenylethyl)-6-(4-(trifluoromethyl)phenyl)-1H-imidazo[4,5-b]pyrazin-2(3H)-one] yielded an IC50 in data set [2] greater than 30 µM.
In data set [1], `CC(c1ccccc1)n1c(=O)oc2ncc(-c3cccc4ncccc34)nc21` (stereo not drawn) [Compound 86, 3-(1-phenylethyl)-5-(quinolin-5-yl)oxazolo[5,4-b]pyrazin-2(3H)-one] had a concentration for half-maximal inhibition (IC50) greater than 30 µM.
For the compound `O=c1[nH]c2ncc(-c3ccc(O)cc3)nc2n1CC1CCCC1` [Compound 87, 1-(cyclopentylmethyl)-6-(4-hydroxyphenyl)-1H-imidazo[4,5-b]pyrazin-2(3H)-one], the melting point – broadly, the temperature, or range, at which the solid turns liquid – fell in the range of 296 to 297 °C. The 50% inhibitory concentration (IC50) in data set [1] is 0.1 to 5 µM.
The matching figures for `CC(C)n1c(=O)[nH]c2ncc(-c3ccc(O)cc3)nc21` [Compound 88, 6-(4-hydroxyphenyl)-1-isopropyl-1H-imidazo[4,5-b]pyrazin-2(3H)-one]: 323 to 324 °C and 0.1 to 5 µM.
The matching figures for `CC(C)Cn1c(=O)[nH]c2ncc(-c3ccc(O)cc3)nc21` [Compound 89, 6-(4-hydroxyphenyl)-1-isobutyl-1H-imidazo[4,5-b]pyrazin-2(3H)-one]: 290 to 291 °C and 0.1 to 5 µM.
On to `O=c1[nH]c2ncc(-c3ccc(O)cc3)nc2n1CC1CCCOC1` (stereo not drawn) [Compound 90, 6-(4-hydroxyphenyl)-1-((tetrahydro-2H-pyran-3-yl)methyl)-1H-imidazo[4,5-b]pyrazin-2(3H)-one], for which the melting point was in the range of 271 to 272 °C. This compound showed a 50% inhibitory concentration (IC50) in data set [1] of 0.1 to 5 µM.
The matching figures for `O=c1[nH]c2ncc(-c3ccc(O)cc3)nc2n1CC1CCCCC1` [Compound 91, 1-(cyclohexylmethyl)-6-(4-hydroxyphenyl)-1H-imidazo[4,5-b]pyrazin-2(3H)-one]: 302 to 303 °C and 0.1 to 5 µM.

The values are drawn from patent US7981893B2, “Heteroaryl compounds, compositions thereof, and methods of treatment therewith” (Signal Pharmaceuticals, LLC, priority 2006, dated 2011).
